Article PMC4213378, “Pharmacokinetics and Efficacy of the Spleen Tyrosine Kinase Inhibitor R406 after Ocular Delivery for Retinoblastoma” (Pharmaceutical Research, 2014)

Legend:
[1] = Concentration and stability of R406 in cosolvent solution formulation; format: physicochemical
Protocol: R406 stability in cosolvent solution: Precipitation of R406 in the cosolvent solution causes a drop in concentration after 48 hours of storage at room temperature (Table S3), but there is no loss of purity indicating R406 is chemically stable in the co-solvent solution for 48 hours at room temperature (Figure S4).

[2] = Concentration and stability of R406 in castor oil and castor oil emulsion; format: physicochemical
Protocol: For oral delivery of R788, the target dose of 25 mg/kg R788 was administered by oral gavage as a 4 mM solution in 0.01 N citrate buffer, pH 6 ([9]). For subconjunctival administration, R788 was prepared at a concentration of 4 mM in 2% PEG-800 and filtered through a 0.22 μm filter prior to use (see Table S1). R788 was also administered subconjunctivally as a suspension at a concentration of 25 mM in 10% 2-hydroxylpropyl-β-cyclodextrin (HPβCD, Sigma-Aldrich). For subconjunctival administration, R406 phenylsulfonate salt was administered at a concentration of 800–900 μM as a cosolvent solution in a formulation of 5% Cremaphor-eL, 0.5% ethanol, 0.2% Tween 80 and 94.3% PBS, filtered through a 0.22 μm filter prior to use (see Table S2). R406 phenylsulfonate salt was also administered subconjunctivally at a dose of 31.4 mM solution in DMSO. R406 free base was administered subconjunctivally at a concentration of 6.5 mM as a 25% castor oil (Sigma-Aldrich) emulsion. This emulsion was prepared by mixing castor oil: ethanol (1:1) solution of R406 (approx. 35 mM), in vacuo evaporation of the ethanol, and centrifugation to remove any excess R406, then emulsifying the R406 oil phase in an aqueous phase comprised of Cremaphor-eL, Tween 80 and PBS (final composition of the emulsion: 25% castor oil, 5% Cremaphor-eL, 0.2% Tween-80, 69.8% PBS) by probe sonication. For intravitreal injection, R788 solution was prepared by filtering a 0.12 mM (120 μM) solution of R788 in saline through a 0.22 μm filter. […] For topical delivery, 25–30 mM suspensions were prepared in 5% HPβCD. R406 or R788 concentration in all formulations was determined by UPLC prior to study (in cases where formulation was filtered before administration, concentration was determined post-filtering) Table I.
An emulsion of 30% castor oil, 5% Cremaphor, 4% T80, 61% PBS was prepared and samples were stored at 4 °C and room temperature (25 °C). Samples were diluted and OD600 for each dilution was measured in triplicate on the day of emulsion preparation (storage time = 0 days) and after 6 days of storage. OD600 was measured using a black Costar clear bottom plate and a Spectramax plate reader.
For storage stability in emulsion, n =4.

[3] = test system: SJ-39 retinoblastoma cells; test: Efficacy in human orthotopic xenograft mouse model of retinoblastoma (event-free survival); format: in vivo
Protocol: Preclinical testing was carried out in human orthotopic xenograft mice using the methods previously described ([10], [11]). SJ-39 retinoblastoma cells were injected into the vitreous of 30 immunocompromised mice (J:NU, The Jackson Laboratory (Bar Harbor, ME, USA)): 10 were untreated and 20 received subconjunctival injections of R406 in solution formulation (R406^oc) and systemic topotecan (TPT^syst) combination therapy administered over a 5-day course every third week as follows: 10 μL R406 per eye at a concentration of […] (8–9 nanomoles/eye) on day 1, and TPT^syst (0.7 mg/kg per dose, i.p.) on days 1 to 5 (see Fig. 1a). Mice were scheduled to receive six courses of therapy (18 weeks total). Before each course of therapy, mice were examined and intraocular pressure (IOP) was read as previously described ([10], [11]). If intraocular pressure was elevated above normal (IOP > 20) or eye rupture was observed, mice were taken off study and time to event was recorded. At the completion of the study event-free survival (EFS) was analyzed for the R406^oc/TPT^syst treated and untreated groups.
Since R406 is the SYK inhibitor farthest along in clinical development (Phase 3), and therefore the most likely compound to be tested clinically against retinoblastoma, we decided to focus upon its evaluation. In order to test the efficacy of R406 in vivo, we developed a solution formulation using FDA approved adjuvants for ophthalmic applications ([11]). The maximum concentration of R406 in solution was approximately 900 μM and R406 was chemically stable in formulation for 48 h at room temperature (Table S3 and Fig. S2). Next, we performed in vivo efficacy studies using the solution formulation of R406 in combination with systemic topotecan (standard for our preclinical evaluation of new retinoblastoma agents ([11]) following a clinically relevant dose and schedule as was previously done for nutlin-3a and BAY-61-3606 ([6], [11]). SJ-39 retinoblastoma cells were injected into the vitreous of 30 immunocompromised mice and animals were randomized into two treatment groups: 20 received subconjunctival injections of R406 in solution formulation (R406^oc) and systemic topotecan (TPT^syst) combination therapy administered over a 5-day course every third week (see Fig. 1a) and 10 were untreated. Animals were scheduled to receive 6 courses of treatment (18 weeks total), but no animal completed the entire 6 courses. All animals were taken off study by 63 days due to elevated intraocular pressure (IOP > 20) or eye rupture. Event free survival (EFS) was analyzed for the two groups (Fig. 1b). […]

[4] = Storage Time = 48 hr, room temperature
[5] = Storage Time = 24 hr, room temperature
[6] = Storage Time = 72 hr, room temperature

In the case of COc1cc(Nc2ncc(F)c(Nc3ccc4c(n3)NC(=O)C(C)(C)O4)n2)cc(OC)c1OC [R406], the “Average Concentration in cosolvent formulation” value ([1]; Initial Concentration, room temperature) is reported as 743.6 µM, the “Average Concentration in cosolvent formulation” value [1, 4] is reported as 252.5 µM and the “Percentage of Initial Concentration in cosolvent formulation” value [1, 4] is reported as 34%. The “maximum concentration of R406 in solution formulation” value ([1]; cosolvent solution formulation with FDA approved ophthalmic adjuvants) was “approximately 900 μM”, the “time chemically stable in cosolvent solution formulation (no loss of purity)” value ([1]; room temperature) was 48 h and the “Average Concentration in castor oil emulsion” value ([2]; Initial Concentration, room temperature, n=4) was 12.39 ± 1.21 mM. The “time emulsion was stable” value ([2]; R406 castor oil emulsion, room temperature) was 48 h, the “Average Concentration in castor oil emulsion” value [2, 5] was 11.03 ± 2.09 mM and the “Percentage of Initial Concentration in castor oil emulsion” value (“Percentage … in castor oil emulsion” for short) [2, 5] was 89.0%. The “Average Concentration in castor oil emulsion” value [2, 4] was 9.78 ± 3.13 mM, the “Percentage … in castor oil emulsion” value [2, 4] was 78.9% and the “Average Concentration in castor oil emulsion” value [2, 6] was 12.45 ± 1.43 mM. For the same molecule, the “Percentage … in castor oil emulsion” value [2, 6] was 100.5%, the “concentration of R406 achieved in emulsion” value ([2]; castor oil emulsion) was 6500 µM and the “time stable in castor oil emulsion” value ([2]; room temperature) was “at least 72 hours”. The “proportion of event free survivals at 21 days” value ([3]; subconjunctival R406 solution 8–9 nmol/eye day 1 + systemic topotecan 0.7 mg/kg i.p. days 1-5, every third week, n=20, untreated 50%) was 90%, the “time by which all animals were taken off study (IOP > 20 or eye rupture)” value ([3]; subconjunctival R406 solution + systemic topotecan) was ≤ 63 days and the “proportion of event free survivals at 42 days” value ([3]; subconjunctival R406 solution + systemic topotecan, untreated 0%) was 30%. For the same molecule, the “Median event free survival” value ([3]; subconjunctival R406 solution + systemic topotecan, untreated 32.5 days, log-rank p = 0.005) was 42 days.
